Assay results: patent US11882836B2, “1-amino-1-cyclopropanecarboxylic acid mixtures and uses thereof” (Valent BioSciences LLC, priority 2020, dated 2024)

Key:
Format in all cases: in vivo
[1] = test system: Prunus (stone fruit) plants; test: Bud break and shoot development of Prunus (stone fruit) plants in the greenhouse (Example 2); conditions: for FW (grams): harvest, 28 days
Description: (§1) To determine if the mixtures provided unexpected results, the observed combined efficacy (“OCE”) was divided by the expected combined efficacy (“ECE”) wherein the expected ECE is calculated by the Abbott method: ECE=A+B−(AB/100),
(§2) wherein ECE is the expected combined efficacy and in which A and B are the speed of bud break relative to control, the number of buds broken per plant relative to control, shoot length relative to control or shoot weight relative to control given by the single active ingredients. If the ratio between the OCE of the mixture and the ECE of the mixture is greater than 1, then greater than expected interactions are present in the mixture. (Gisi, Synergistic Interaction of Fungicides in Mixtures, The American Phytopathological Society, 86:11, 1273-1279, 1996).
(§3) To assess the ability of mixtures of the invention to promote and synchronize bud break, these mixtures were applied to Prunus (stone fruit) plants in the greenhouse and examined for bud break (initiation of growth) and subsequent shoot development. ACC, Dormex® (50% HC), 15-0-0 (Erger®) and 17-0-0 fertilizers (CAN17), and mixtures thereof were each applied individually or sequentially (co-applied) to the shoots of Prunus plants. Plants were evaluated for bud break at 28 days after treatment.

[2] = test system: Prunus (stone fruit) plants; test: Bud break and shoot development of Prunus plants, ACC and CAN17 mixtures (Example 3); conditions: for Mean FW: harvest
Description: as §1, §2
as §3, with “HC),” for “HC), 15-0-0 (Erger®)”, “from 4-21” for “at 28”

Malus (apple) rootstocks = test: Bud break and shoot development of Malus (apple) rootstocks after shoot application (Example 1); conditions: for Average Number of Broken Buds Per Malus Plant at Harvest / Average Number of Broken Nodes Per Centimeter of Shoot at Harvest / Fresh Weight at Harvest / Fresh Weight per Bud at Harvest: 28 days; for Fresh Weight at Harvest / Fresh Weight per Bud at Harvest: Malus
Description: as §3, with “field-grown Malus (apple) rootstocks” for “Prunus (stone fruit) plants in the greenhouse”, “potted Malus rootstocks that were pruned to a height of 25 centimeters.” for “Prunus plants.”
as §1, §2

[3] = test system: Prunus (stone fruit) plants; test: Bud break and shoot development of Prunus plants, ACC and CAN15 mixtures (Example 4); conditions: for Mean FW: harvest
Description: as §1
If the ratio between the OCE of the mixture and the ECE of the mixture is greater than 1, then greater than expected interactions are present in the mixture.
as §3, with “Dormex” for “Dormex®”, “HC), and” for “HC),”, “15-0-0” for “15-0-0 (Erger®) and 17-0-0”, “(CAN15),” for “(CAN17),”, “plants.” for “plants. Plants were evaluated for bud break at 28 days after treatment.”

NC1(C(=O)O)CC1 [ACC, 1-amino-1-cyclopropanecarboxylic acid]
50% BB ([1]; ACC 300 ppm): 12 days | FW (grams) ([1]; ACC 300 ppm): 3.95 grams | 50% BB ([1]; ACC 1000 ppm): 7 days | FW (grams) ([1]; ACC 1000 ppm): 3.81 grams | 0-100% BB ([2]; ACC 100 ppm): 10 days | 50% BB ([2]; ACC 100 ppm): 11 days | Mean FW ([2]; ACC 100 ppm): 0.52 g | 0-100% BB ([2]; ACC 300 ppm): 13 days | 50% BB ([2]; ACC 300 ppm): 10 days | Mean FW ([2]; ACC 300 ppm): 1.84 g | 0-100% BB ([2]; ACC 600 ppm): 12 days | 50% BB ([2]; ACC 600 ppm): 10 days | Mean FW ([2]; ACC 600 ppm): 1.28 g | 50% BB (Malus (apple) rootstocks; ACC 300 ppm): 14 days | Average Number of Broken Buds Per Malus Plant at Harvest (Malus (apple) rootstocks; ACC 300 ppm): 6.13 | Average Number of Broken Nodes Per Centimeter of Shoot at Harvest (Malus (apple) rootstocks; ACC 300 ppm): 0.25 | Fresh Weight at Harvest (Malus (apple) rootstocks; ACC 300 ppm): 4.34 grams | Fresh Weight per Bud at Harvest (Malus (apple) rootstocks; ACC 300 ppm): 0.66 grams | 50% BB (Malus (apple) rootstocks; ACC 1000 ppm): 16 days | Average Number of Broken Buds Per Malus Plant at Harvest (Malus (apple) rootstocks; ACC 1000 ppm): 7.38 | Average Number of Broken Nodes Per Centimeter of Shoot at Harvest (Malus (apple) rootstocks; ACC 1000 ppm): 0.30 | Fresh Weight at Harvest (Malus (apple) rootstocks; ACC 1000 ppm): 3.05 grams | Fresh Weight per Bud at Harvest (Malus (apple) rootstocks; ACC 1000 ppm): 0.46 grams | 0-100% BB ([3]; ACC 100 ppm): 6 days | 50% BB ([3]; ACC 100 ppm): 10 days | Mean FW ([3]; ACC 100 ppm): 1.01 g | 0-100% BB ([3]; ACC 300 ppm): 5 days | 50% BB ([3]; ACC 300 ppm): 10 days | Mean FW ([3]; ACC 300 ppm): 1.46 g | 0-100% BB ([3]; ACC 600 ppm): 7 days | 50% BB ([3]; ACC 600 ppm): 9 days | Mean FW ([3]; ACC 600 ppm): 2.57 g

N#CN [HC, hydrogen cyanamide, reference compound]
50% BB ([1]; HC 1% (v/v)): 7 days | FW (grams) ([1]; HC 1% (v/v)): 4.76 grams | 0-100% BB ([2]; HC 1% (v/v)): 6 days | 50% BB ([2]; HC 1% (v/v)): 9 days | Mean FW ([2]; HC 1% (v/v)): 1.64 g | 50% BB (Malus (apple) rootstocks; HC 1% (v/v)): 12 days | Average Number of Broken Buds Per Malus Plant at Harvest (Malus (apple) rootstocks; HC 1% (v/v)): 8.13 | Average Number of Broken Nodes Per Centimeter of Shoot at Harvest (Malus (apple) rootstocks; HC 1% (v/v)): 0.325 | Fresh Weight at Harvest (Malus (apple) rootstocks; HC 1% (v/v)): 7.99 grams | Fresh Weight per Bud at Harvest (Malus (apple) rootstocks; HC 1% (v/v)): 0.98 grams | 0-100% BB ([3]; HC 1% (v/v)): 6 days | 50% BB ([3]; HC 1% (v/v)): 9 days | Mean FW ([3]; HC 1% (v/v)): 3.15 g
